In general, solubility refers to the dissolved amount per volume that the medium holds. Higher therefore signals much dissolved substance.

For series [1] the following is noted: experimental water solubility when available in the scientific literature; cited from earlier work.
A short description of series [2]: Steroid solubility studies in dissolution media (PBS, pH 6.3), Example 10. The class given is physicochemical. The conditions noted are these: for solubility at 68 h: pH 6.3, aqueous buffer, thermodynamic from solid. As for the experimental part: Solubility of the steroid candidates was assessed in dissolution media (PBS, pH 6.3) at ambient temperatures for 68 hours. UV detection of soluble steroid was determined relative to a standard curve.

In series [3] the test system is vitreous of a Male New Zealand white rabbit. As to the kind of experiment: Intravitreal injection of micronized axitinib suspension, histology after 1 month. The class given is in vivo. The conditions noted are these: for Inflammation around the injected material / Inflammation within the vitreous Chamber: semi-quantitative scale 0-5. As for the experimental part:
50 μL of the 2% axitinib suspension was then drawn into a 100 μL luer lock Hamilton syringe using a 21G 1.5″ needle. The needle was swapped for a fresh 27G ½″ TW needle (Nipro). The 50 μL suspension was then injected at the 6 o'clock position within the vitreous of a Male New Zealand white rabbit. After 1 month, eyes were explanted and prepared for histology.
(§1) Two eyes were fixed (Davidson's), blocked, sectioned, mounted and stained for microscopical examination by a board certified veterinary pathologist. Eyes were sectioned according to the following scheme: A suture had been placed at the 12 o'clock position for orientation at harvest. Typically eyes were trimmed in half in the plane from 12 o'clock to 6 o'clock through the lens and optic nerve along the midline. This captures as many optic structures in one plane as is possible. The trimmed eyes were examined grossly and abnormalities noted. Each half of the globe trimmed was embedded in its own cassette. Cassette A is always the nasal half of the eye, and cassette B is always the temporal half of the eye. For each block 6 hematoxylin and eosin (H&E)-stained slides were prepared that were separated by 1000 microns (1 mm). Each slide contained 2 serial sections of eye on it. All slides were evaluated by a board-certified veterinary pathologist at Charter Preclinical Services. Tissues were scored on a semi-quantitative scale from 0-5 for any abnormalities.
Eyes were scored in several categories for signs of inflammation or other adverse findings. Inflammation scores were as follows:
1—Rare foci of change; minimal
2—Mild diffuse change or more pronounced focal change
3—Moderate diffuse change
5 μL of the 4% Axitinib suspension was then drawn into a 100 μL luer lock Hamilton syringe using a 21G 1.5″ needle. The needle was swapped for a fresh 27G ½″ TW needle (Nipro). The 50 μL suspension was then injected at the 6 o'clock position within the vitreous of a Male New Zealand white rabbit. After 1 month, eyes were explanted and prepared for histology.
as §1, with “(Davidson's fixative solution),” for “(Davidson's),”
Eyes were scored in several categories for signs of inflammation or other adverse findings as described above.
50 μL of the 8% axitinib suspension was then drawn into a 100 μL luer lock Hamilton syringe using a 21G 1.5″ needle. The needle was swapped for a fresh 27G ½″ TW Nipro needle. The 50 μL suspension was then injected at the 6 o'clock position within the vitreous of both eyes in Male New Zealand white rabbit. After 1 month, eyes were explanted and prepared for histology.

The conditions of series [4]: statement in words; cited from earlier work.

In brackets after ≈: the same amount, converted by molar mass. Structures can show the parent of a compound that is named as a salt.

Aflibercept: in series [1], the “Experimental Solubility” value was >100,000 μg/mL.

Consider `CCOC(=O)O[C@]1(C(=O)OCCl)CC[C@H]2[C@@H]3CCC4=CC(=O)C=C[C@]4(C)[C@H]3[C@@H](O)C[C@@]21C` [Loteprednol etabonate], for which the “Experimental Solubility” value in series [1] is 5 µg/mL.

For `CC[C@H]1OC(=O)[C@H](C)[C@@H](O[C@H]2C[C@@](C)(OC)[C@@H](O)[C@H](C)O2)[C@H](C)[C@@H](O[C@@H]2O[C@H](C)C[C@H](N(C)C)[C@H]2O)[C@](C)(O)C[C@@H](C)CN(C)[C@H](C)[C@@H](O)[C@]1(C)O` [Azithromycin], in series [1], the “Experimental Solubility” value was 69 µg/mL.

For `Nc1c(CC(=O)O)cccc1C(=O)c1ccc(Br)cc1` [Bromfenac], the “Experimental Solubility” value in series [1] is recorded as 53,000 μg/mL.

In the case of `CCN(CC)CCNC(=O)c1c(C)[nH]c(/C=C2\C(=O)Nc3ccc(F)cc32)c1C` [Sunitinib Malate], the “Experimental Solubility” value in series [1] is reported as 25,000 μg/mL.

For the compound `CC1(C)O[C@@H]2C[C@H]3[C@@H]4C[C@H](F)C5=CC(=O)C=C[C@]5(C)[C@H]4[C@@H](O)C[C@]3(C)[C@]2(C(=O)CO)O1` [Flunisolide, Anhydrous, USP, Flunisolide], the concentration in solution in series [2] (solubility at 68 h) was 90 µg/mL (≈ 207 µM).

As to `CO[C@H]1C[C@@H]2CC[C@@H](C)[C@@](O)(O2)C(=O)C(=O)N2CCCC[C@H]2C(=O)O[C@H]([C@H](C)C[C@@H]2CC[C@@H](OCCO)[C@H](OC)C2)CC(=O)[C@H](C)/C=C(\C)[C@@H](O)[C@@H](OC)C(=O)[C@H](C)C[C@H](C)/C=C/C=C/C=C/1C` [Everolimus], the “Experimental Solubility” value in series [1] was 10 µg/mL.

For the compound `CNC(=O)c1ccccc1Sc1ccc2c(/C=C/c3ccccn3)n[nH]c2c1` [Axitinib], the “Experimental Solubility” value in series [1] was 1 µg/mL. Besides, the “Other adverse findings (retina, sclera, lens, etc.)” value is reported as “none” in series [3] (100 μg); “none” in series [3] (200 μg); “none” in series [3] (400 ug, both eyes). Also, the “Inflammation around the injected material” value in series [3] (100 μg) is reported as 0.04±0.29; in series [3] (200 μg), 0.08±0.37; in series [3] (400 ug, both eyes) it was 0.14±0.35. The “Inflammation within the vitreous Chamber” value in series [3] (100 μg) turned out to be 0.0±0.0; in series [3] (200 μg), 0.14±0.35; in series [3] (400 ug, both eyes) it was 0.14±0.35.

`O=C(O)Cc1ccccc1Nc1c(Cl)cccc1Cl` [Diclofenac]: the “Experimental Solubility” value in series [1] was 600 µg/mL.

For the compound `CCC(=O)O[C@]1(C(=O)SCF)[C@H](C)C[C@H]2[C@@H]3C[C@H](F)C4=CC(=O)C=C[C@]4(C)[C@@]3(F)[C@@H](O)C[C@@]21C` [Fluticasone Propionate], the “Experimental Solubility” value in series [1] was 1 µg/mL.

Regarding `O=c1[nH]c(=O)n([C@H]2C[C@H](O)[C@@H](CO)O2)cc1C(F)(F)F` [Trifluridine], the “Experimental Solubility” value in series [1] is 1,500 μg/mL.

For the compound `C[C@H]1C[C@H]2[C@@H]3CCC4=CC(=O)C=C[C@]4(C)[C@@]3(F)[C@@H](O)C[C@]2(C)[C@@]1(O)C(=O)COP(=O)([O-])[O-].[Na+].[Na+]` [Betamethasone Sodium Phosphate], the “Max Solubility in PBS, pH 6.3” value in series [2] (PBS pH 6.3, ambient temperatures, 68 hours, UV detection) was > 100,000 μg/mL. The “Solubility in water, descriptive” value in series [2] (printed beside the Example 10 value) is “freely soluble”. The “Experimental Solubility” value in series [1] was 67 µg/mL.

Turning to `C=CC[C@@H]1/C=C(\C)C[C@H](C)C[C@H](OC)[C@H]2O[C@@](O)(C(=O)C(=O)N3CCCC[C@H]3C(=O)O[C@H](/C(C)=C/[C@@H]3CC[C@@H](O)[C@H](OC)C3)[C@H](C)[C@@H](O)CC1=O)[C@H](C)C[C@@H]2OC` [Tacrolimus], the “Experimental Solubility” value in series [1] was 8 µg/mL.

For `CN1CCC(=C2c3ccccc3CC(=O)c3sccc32)CC1` [Ketotifen base], the “Experimental Solubility” value in series [1] was 15 µg/mL.

In the case of `CN1CCC(=C2c3ccccc3CC(=O)c3sccc32)CC1` [Ketotifen fumarate], the “Experimental Solubility” value in series [1] is 10,000 μg/mL.

For the compound `CN1CCCC(n2nc(Cc3ccc(Cl)cc3)c3ccccc3c2=O)CC1` (centres unmarked) [Azelastine Base], in series [1], the “Experimental Solubility” value is 50 µg/mL.

Regarding `CN1CCCC(n2nc(Cc3ccc(Cl)cc3)c3ccccc3c2=O)CC1.O=C(O)c1cc2ccccc2c(Cc2c(O)c(C(=O)O)cc3ccccc23)c1O` [Azelastine Embonate], the “Experimental Solubility” value in series [1] was 15 µg/mL.

For the compound `N[C@@H]1CCCCN(c2c(F)cc3c(=O)c(C(=O)O)cn(C4CC4)c3c2Cl)C1` [Besifloxacin Base], the “Experimental Solubility” value in series [1] was 90 µg/mL.

In series [2], `CC1(C)O[C@@H]2C[C@H]3[C@@H]4CCC5=CC(=O)C=C[C@]5(C)[C@@]4(F)[C@@H](O)C[C@]3(C)[C@]2(C(=O)CO)O1` [Triamcinolone Acetonide] returned a solubility at 68 h of 20 µg/mL (≈ 46 µM).

`CCCC1O[C@@H]2C[C@H]3[C@@H]4CCC5=CC(=O)C=C[C@]5(C)[C@H]4[C@@H](O)C[C@]3(C)[C@]2(C(=O)CO)O1` (some centres unmarked) [Budesonide]: the solubility at 68 h in series [2] was found to be 30 µg/mL (≈ 69.7 µM). Moreover, in series [1], the “Experimental Solubility” value is 24 µg/mL.

As for `CC(C)OC(=O)CCC/C=C\C[C@@H]1[C@@H](/C=C/[C@@H](O)COc2cccc(C(F)(F)F)c2)[C@H](O)C[C@@H]1O` [Travoprost], the “Experimental Solubility” value in series [1] is 44 µg/mL.

Consider `CC(C)(C)NC[C@H](O)COc1nsnc1N1CCOCC1` [Timolol Maleate], for which the “Experimental Solubility” value in series [1] is given as 2,800 μg/mL.

Turning to `COc1c(N2CCNC(C)C2)c(F)cc2c(=O)c(C(=O)O)cn(C3CC3)c12` (centres unmarked) [Gatifloxacin], in series [1], the “Experimental Solubility” value is recorded as 60,000 μg/mL.

`C[C@@H]1C[C@H]2[C@@H]3CCC4=CC(=O)C=C[C@]4(C)[C@@]3(F)[C@@H](O)C[C@]2(C)[C@@]1(O)C(=O)CO` [Dexamethasone alcohol]: the “Experimental Solubility” value in series [1] was 89 µg/mL.

Consider `COc1cc2c(Nc3ccc(Br)cc3F)ncnc2cc1OCC1CCN(C)CC1` [Vandetanib (ZD6474), Vandetanib], for which the “Experimental Solubility” value in series [1] was 8 µg/mL.

For the compound `CO[C@H]1C[C@@H]2CC[C@@H](C)[C@@](O)(O2)C(=O)C(=O)N2CCCC[C@H]2C(=O)O[C@H]([C@H](C)C[C@@H]2CC[C@@H](O)[C@H](OC)C2)CC(=O)[C@H](C)/C=C(\C)[C@@H](O)[C@@H](OC)C(=O)[C@H](C)C[C@H](C)/C=C/C=C/C=C/1C` [Sirolimus], in series [1], the “Experimental Solubility” value was under 100 µg/mL.

For `C[C@@H]1C[C@H]2[C@@H]3CCC4=CC(=O)C=C[C@]4(C)[C@@]3(Cl)[C@@H](O)C[C@]2(C)[C@@]1(OC(=O)c1ccco1)C(=O)CCl` [Mometasone furoate], the “Experimental Solubility” value in series [1] was 20 µg/mL.

With `CC(C(=O)O)c1ccc(-c2ccccc2)c(F)c1` (centres unmarked) [Flurbiprofen Sodium], the “Experimental Solubility” value in series [1] is 61 µg/mL.

As for `CC(C)OC(=O)CCC/C=C\C[C@@H]1[C@@H](CC[C@@H](O)CCc2ccccc2)[C@H](O)C[C@@H]1O` [Latanoprost], the “solubility in aqueous solutions” value in series [4] is “relatively low solubility”.

Source of the values: US11369591B2, “Drug delivery from hydrogels” (Incept, LLC, priority 2015, dated 2022).
